pEC50: −log10 of the molar value. One block for each compound: values may come before it. Calls of active or inactive are those of the source. No cut-off for these calls is given here.
Key:
Type in all cases: functional, cell-based
LX-2 [1] = test: Antifibrotic activity against human LX-2 cells overexpressing human Adenosine receptor A2a assessed as downregulation of alpha-SMA expression at 10 uM incubated for 18 hrs by Western blotting analysis
LX-2 [2] = test: Antifibrotic activity against human LX-2 cells overexpressing human Adenosine receptor A2a assessed as downregulation of fibronectin expression at 10 uM incubated for 18 hrs by Western blotting analysis
LX-2 [3] = test: Antifibrotic activity against human LX-2 cells overexpressing human Adenosine receptor A2a assessed as downregulation of COL1A1 expression at 10 uM incubated for 18 hrs by Western blotting analysis
LX-2 [4] = test: Antifibrotic activity against human LX-2 cells overexpressing human Adenosine receptor A2a assessed as downregulation of PKA phosphorylation at Thr197 residue at 10 uM incubated for 18 hrs by Western blotting analysis
Adenosine receptor A2a = Adenosine receptor A2a (Homo sapiens, UniProt P29274); test: Antagonist activity at human Adenosine receptor A2a transfected in HEK293 cells co-expressing CRE-luciferase plasmid assessed as reduction in CRE promoter activity by measuring effective concentration incubated for 18 hrs by luciferase based CRE reporter assay
Sequence of Adenosine receptor A2a (P29274 whole entry): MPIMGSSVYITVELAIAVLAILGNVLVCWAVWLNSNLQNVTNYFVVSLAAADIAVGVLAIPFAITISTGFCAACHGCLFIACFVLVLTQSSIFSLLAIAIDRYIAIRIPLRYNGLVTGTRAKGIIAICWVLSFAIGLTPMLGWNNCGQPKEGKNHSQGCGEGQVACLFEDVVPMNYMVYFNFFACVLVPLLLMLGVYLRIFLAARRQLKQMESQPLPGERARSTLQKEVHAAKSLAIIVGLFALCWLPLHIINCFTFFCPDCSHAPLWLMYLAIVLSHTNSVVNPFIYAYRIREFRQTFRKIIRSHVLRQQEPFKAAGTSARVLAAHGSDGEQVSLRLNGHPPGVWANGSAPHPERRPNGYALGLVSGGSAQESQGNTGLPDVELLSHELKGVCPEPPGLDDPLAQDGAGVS

SMILES: CNc1nc(C#Cc2ccccc2)nc2c1ncn2Cc1cc(OC)c(OC)c(OC)c1
- Activity (LX-2 [1]): inactive
- Activity (LX-2 [2]): inactive
- Activity (LX-2 [3]): inactive
- Activity (LX-2 [4]): inactive

- pEC50 (Adenosine receptor A2a): 4.84
SMILES: CNc1nc(C#Cc2ccccc2)nc2c1ncn2Cc1ccccc1
- Activity (LX-2 [1]): Active
- Activity (LX-2 [2]): Active
- Activity (LX-2 [3]): Active
- Activity (LX-2 [4]): Active

Source: ChEMBL document CHEMBL5614411, “Exploring novel A2AAR antagonists: Design, synthesis, and evaluation of 2,6,9-trisubstituted purine derivatives as promising antifibrotic agents” (Bioorg Med Chem, 2024)
